The target in the assay is recombinant hCaV3.3 channels (Homo sapiens, UniProt Q9P0X4). The assay can be described thus: Whole-cell patch-clamp QPatch 16 X, CaV3.3. It is filed as cell-based. Here is the method: The human embryonic kidney 293 (HEK 293) cell lines (from Emmanuel Bourinet, Montpellier, France) stably expressing CaV3.2 or CaV3.3 were cultured under 5% carbon dioxide at 37 °C in Dulbecco’s Modified Eagle Medium (DMEM) Glutamax (Gibco, Life Technologies, Carlsbad, CA, USA) supplemented with 10% (v/v) fetal bovine serum (FBS), 100 U/mL penicillin, 100 μg/mL streptomycin (Gibco, Life Technologies), and 750 μg/mL geneticin (G418) (Gibco, Life Technologies). The Chinese Hamster Ovary (CHO) cell lines (Emmanuel Bourinet, Montpellier, France) expressing CaV3.1 were cultured under 5% carbon dioxide at 37 °C in Alpha Minimum Essential Media (MEM) Glutamax (Gibco, Life Technologies), supplemented with 10% (v/v) fetal bovine serum (FBS) and 300 μg/mL geneticin (G418) (Gibco, Life Technologies). The human neuroblastoma SH-SY5 Y cells (Victor Diaz, Goettingen, Germany) were cultured under 5% carbon dioxide at 37 °C in RPMI 1640 antibiotic-free medium (Invitrogen, Carlsbad, CA, USA), supplemented with 15% FBS and 2 mM GlutaMAX™ (Invitrogen). D-PBS (Gibco, Life Technologies) was used to wash the cells, and 0.25% Trypsin-EDTA (Gibco, Life Technologies) was used to detach cells from the flask surface. They were split in a ratio of 1:5 (ideally 1000 cells/cm^2) when they reached 70%–80% confluence (every 2–3 days). Transiently transfected CaV3.1HEK293 T cells were used in FLIPR Assays. HEK 293 T cells were cultured under 5% carbon dioxide at 37 °C in DMEM supplemented with 10% (v/v) FBS. D-PBS was used to wash the cells, and 0.25% Trypsin-EDTA was used to detach cells from the flask surface. The cells were split and seeded at 6 million cells per T175 flask, to reach 70%–80% confluence after 24 h. The next day, 12 μg DNA of human CaV3.1 was incubated in 900 μL serum-free DMEM with 36 μL FuGENE HD transfection reagent (Promega Corporation, Madison, WI, US) (1:3 DNA/Fugene ratio) for 20 min, and then the mixture was added into the cell flask slowly, drop by drop. After the transfection, the cells were cultured under 5% carbon dioxide at 37 °C for 24 h and then moved to a 28 °C incubator.
Whole-cell patch-clamp experiments were performed on an automated electrophysiology platform QPatch 16 X (Sophion Bioscience A/S, Ballerup, Denmark) in single-hole configuration using 16-channel planar patch chip QPlates (Sophion Bioscience A/S). The extracellular recording solution contained, in mM: TEACl 157, MgCl2 0.5, CaCl2 5, and HEPES 10; pH 7.4 adjusted with TEAOH; and osmolarity 320 mOsm. The intracellular pipette solution contained, in mM: CsF 140, EGTA 1, HEPES 10, and NaCl 10; pH 7.2 adjusted with CsOH; and osmolarity 325 mOsm. […]
Data were plotted and analyzed using GraphPad Prism v7.0 (GraphPad Software Inc., San Diego, CA, USA). […]
On the technique in general: In patch-clamp work, channel activity is measured electrically.

Where only a bound is given, the exact number is not on record here.

recombinant hCaV3.3 channels, sequence (Q9P0X4 whole entry): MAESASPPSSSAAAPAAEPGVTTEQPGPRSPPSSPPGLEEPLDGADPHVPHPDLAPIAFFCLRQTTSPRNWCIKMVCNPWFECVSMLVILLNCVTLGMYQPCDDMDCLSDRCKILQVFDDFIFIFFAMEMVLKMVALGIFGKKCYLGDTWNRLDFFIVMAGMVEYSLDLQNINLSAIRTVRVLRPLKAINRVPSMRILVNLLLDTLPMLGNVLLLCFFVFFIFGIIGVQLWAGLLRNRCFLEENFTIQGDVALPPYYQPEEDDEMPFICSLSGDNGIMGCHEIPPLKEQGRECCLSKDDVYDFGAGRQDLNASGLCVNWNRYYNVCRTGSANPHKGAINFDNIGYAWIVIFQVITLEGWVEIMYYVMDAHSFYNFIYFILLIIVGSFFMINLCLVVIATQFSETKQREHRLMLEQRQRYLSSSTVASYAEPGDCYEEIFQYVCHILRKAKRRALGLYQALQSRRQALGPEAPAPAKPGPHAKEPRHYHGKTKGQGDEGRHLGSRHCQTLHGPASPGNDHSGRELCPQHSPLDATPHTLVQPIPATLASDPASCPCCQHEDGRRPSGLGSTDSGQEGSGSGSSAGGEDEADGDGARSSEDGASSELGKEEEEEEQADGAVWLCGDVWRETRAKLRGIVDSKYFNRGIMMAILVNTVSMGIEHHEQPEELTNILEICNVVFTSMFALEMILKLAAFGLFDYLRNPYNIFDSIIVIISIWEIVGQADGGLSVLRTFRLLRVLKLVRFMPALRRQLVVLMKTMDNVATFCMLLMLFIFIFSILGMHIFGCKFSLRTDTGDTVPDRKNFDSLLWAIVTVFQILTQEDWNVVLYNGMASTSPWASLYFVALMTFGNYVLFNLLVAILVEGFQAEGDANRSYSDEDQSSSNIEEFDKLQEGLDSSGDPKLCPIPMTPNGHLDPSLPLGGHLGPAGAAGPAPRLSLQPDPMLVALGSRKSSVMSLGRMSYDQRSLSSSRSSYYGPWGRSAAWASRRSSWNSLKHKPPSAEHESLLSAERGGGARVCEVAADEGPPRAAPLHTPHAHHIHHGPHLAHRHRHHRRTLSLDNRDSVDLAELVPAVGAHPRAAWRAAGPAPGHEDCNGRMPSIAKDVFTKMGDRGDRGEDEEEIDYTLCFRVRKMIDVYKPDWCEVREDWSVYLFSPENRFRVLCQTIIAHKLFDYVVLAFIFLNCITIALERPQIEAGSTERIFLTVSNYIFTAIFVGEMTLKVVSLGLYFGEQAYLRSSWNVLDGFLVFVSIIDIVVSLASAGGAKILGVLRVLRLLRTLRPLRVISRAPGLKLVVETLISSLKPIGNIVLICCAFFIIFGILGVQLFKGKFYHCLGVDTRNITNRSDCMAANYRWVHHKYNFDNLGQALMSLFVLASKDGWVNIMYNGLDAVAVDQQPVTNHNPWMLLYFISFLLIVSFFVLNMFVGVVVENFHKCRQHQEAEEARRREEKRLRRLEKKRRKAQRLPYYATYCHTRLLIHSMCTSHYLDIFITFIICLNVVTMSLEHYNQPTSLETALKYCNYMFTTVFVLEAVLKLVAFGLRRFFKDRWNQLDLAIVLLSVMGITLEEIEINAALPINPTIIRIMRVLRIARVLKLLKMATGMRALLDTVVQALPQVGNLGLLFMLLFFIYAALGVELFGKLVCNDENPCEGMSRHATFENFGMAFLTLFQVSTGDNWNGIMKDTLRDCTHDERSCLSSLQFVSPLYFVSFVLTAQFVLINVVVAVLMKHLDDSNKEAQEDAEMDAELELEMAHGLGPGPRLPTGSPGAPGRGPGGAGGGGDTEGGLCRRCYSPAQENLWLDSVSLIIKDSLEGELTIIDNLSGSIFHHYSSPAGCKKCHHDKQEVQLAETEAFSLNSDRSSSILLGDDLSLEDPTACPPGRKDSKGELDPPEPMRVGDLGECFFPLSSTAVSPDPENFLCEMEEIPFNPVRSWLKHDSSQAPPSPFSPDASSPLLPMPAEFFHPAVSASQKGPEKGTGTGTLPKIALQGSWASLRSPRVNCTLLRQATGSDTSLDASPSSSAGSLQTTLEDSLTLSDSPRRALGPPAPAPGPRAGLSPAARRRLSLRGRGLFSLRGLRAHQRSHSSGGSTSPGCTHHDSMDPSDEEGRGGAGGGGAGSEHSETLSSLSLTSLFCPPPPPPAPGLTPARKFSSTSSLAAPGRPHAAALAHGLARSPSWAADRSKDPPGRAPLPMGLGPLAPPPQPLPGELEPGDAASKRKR

By Emax is commonly meant the greatest response seen or fitted, relative to the assay's reference. Broadly, the inhibition is the percentage by which the read-out fell short of the control. A word on the IC50: it is the concentration that gives 50% inhibition. Consider `COC(=O)[C@H](Cc1c[nH]c2ccccc12)NC(=O)C(C)(c1c[nH]c2ccccc12)c1c[nH]c2ccccc12` [Compound 3, Methyl (2,2-di(1H-indol-3-yl)propanoyl)-L-tryptophanate], for which the maximal response (Emax) (QPatch whole-cell, full inhibition, read-out: Emax value, inhibition of CaV3.3 whole-cell current) was no less than 95%. Moreover, the inhibition at 0.2 µM (QPatch, 200 nM compound, read-out: Inhibition of the CaV3.3 peak current) was less than 10%. Further, the IC50 (QPatch, 200 ms steps to Vmax (−10 mV) from holding −90 mV, n = 5, mean ± SEM, read-out: IC50 CaV3.3 whole-cell current) worked out at 15.8 ± 2.28 µM. The “Voltage-dependence of steady-state inactivation of CaV3.3, in words” value (QPatch, in the presence of compound) is “not significantly shifted”.

The values above are taken from article PMC6315694, “Synthesis of Pseudellone Analogs and Characterization as Novel T-type Calcium Channel Blockers” (Marine Drugs, 2018).
